This is an account of results in US12268674B2, “Mi-2β inhibitor as an immunotherapy agent” (BioVentures, LLC, priority 2021, dated 2025).

The structures appear in SMILES notation.

Data set [1] in a line: Tolerability in C57BL/6 mice (body weight, H&E staining of tissues). In kind it is in vivo. The note with it: 30 mg/kg/day for 2 weeks. The source says:
FIG. 11 illustrates In vitro assay for Mi-2β inhibitors. A, The inhibitory activity of Z36 for Mi-2β chromatin modulatory activity, measured as fold changes of Mi-2β activity treated with control vehicle. B, The inhibitory activity of Z36-MP5 with IC50 values against Mi-2β at different ATP concentrations. The curves from top to bottom: ATP 300 (μM), ATP 100 (μM), ATP 30 (μM), and ATP 10 (μM). C, The expression of Irf1, Cxc19 and Cxcl10 and Irf1 mRNA in B16F10 cells treated with Z36-MP5 as indicated concentration for 24 hours was determined with RT-qPCR assay. The four bars from left to right: vehicle control, Z36-MP5 5 μM, Z36-MP5 25 μM, and Z36-MP5 100 μM. D, Z36-MP5-treated (25 μM) GFP-labelled B16F10 cells were pretreated with 10 ng/ml of IFN-γ for 24 hours, before co-culture with activated Pmel-1 T cells at a ratio of 1:1 for three days. The fold changes of survival GFP-positive tumor cells were assayed with flow cytometry. Data presents as means±SD E, The body weight changes of C57BL/6J mice treated with Z36-MP5 (30 mg/kg/day) for 2 weeks. Data are mean±SEM (n=5). […]
Z36-MP5 was chosen for further validation and experimental therapeutics in vivo. […] To investigate its cellular inhibitory activity, B16-F10 cells were treated with Z36-MP5 at concentrations ranging from 5 to 100 μM, and the activation of Mi-2β target genes measured by RT-qPCR. […]

The target in the next data set is T1, ABCC1 (Homo sapiens, UniProt P33527).
T1 construct: to get the native cell lysate; host or cells: A375 cell lysate
Description: ATPase profile (ATP acyl phosphate probe). The data set is classed as binding.

A further data set addresses T2, ABCD3 (Homo sapiens, UniProt P28288).
T2 construct: to get the native cell lysate; host or cells: A375 cell lysate
Description: ATPase profile (ATP acyl phosphate probe). In kind it is binding. The note with it: ABCD3, SEQ ID NO: 13, ATP BS.

For a further data set, the target named is T3, ACTR3 (Homo sapiens, UniProt P61158).
T3 construct: to get the native cell lysate; host or cells: A375 cell lysate
Description: ATPase profile (ATP acyl phosphate probe). In kind it is binding.

The next data set addresses T4, AK4 (Homo sapiens, UniProt P27144).
T4 construct: to get the native cell lysate; host or cells: A375 cell lysate
Description: ATPase profile (ATP acyl phosphate probe). In kind it is binding. The following applies: AK4, SEQ ID NO: 35, ATP BS.

The target of another data set is T5, CCT2 (Homo sapiens, UniProt P78371).
T5 construct: to get the native cell lysate; host or cells: A375 cell lysate
Description: ATPase profile (ATP acyl phosphate probe). The data set is classed as binding. The following applies: CCT2, SEQ ID NO: 51, ATP BS.

The next data set deals with T6, COASY (Homo sapiens, UniProt Q13057).
T6 construct: endogenous in cells; host or cells: A375 cell lysate
Description: ATPase profile (ATP acyl phosphate probe). The data set is classed as binding.

Another data set concerns the target T7, HSP90AA (Homo sapiens, UniProt P07900).
T7 construct: to get the native cell lysate; endogenous in cells; host or cells: A375
Description: ATPase profile (ATP acyl phosphate probe). In kind it is binding. The note with it: SEQ ID NO: 95, ATP BS.

The target in another data set is T8, HSP90B2P, TRA1 (Homo sapiens, UniProt P14625).
T8 construct: to get the native cell lysate; endogenous in cells; host or cells: A375
Description: ATPase profile (ATP acyl phosphate probe). In kind it is binding. The note with it: TRA1, SEQ ID NO: 99, ATP BS, read-out: Inhibition (%) by 1 μM Z36-MP5.

The target in the next data set is T9, IDI1 (Homo sapiens, UniProt Q13907).
T9 construct: endogenous in cells; host or cells: A375
Description: ATPase profile (ATP acyl phosphate probe). The following applies: IDI1, SEQ ID NO: 111, ATP BS. In kind it is binding.

In another data set the target is T10, LONP1 (Homo sapiens, UniProt P36776).
T10 construct: to get the native cell lysate; endogenous in cells; host or cells: A375
Description: ATPase profile (ATP acyl phosphate probe). The data set is classed as binding. The note with it: LONP1, SEQ ID NO: 115, labeling site Other.

A further data set concerns the target T11, NRK1 (Homo sapiens, UniProt Q9NWW6).
T11 construct: to get the native cell lysate; endogenous in cells; host or cells: A375
Description: ATPase profile (ATP acyl phosphate probe). The data set is classed as binding. The following applies: NRK1, SEQ ID NO: 137, ATP BS.

The next data set addresses T12, NVL (Homo sapiens, UniProt O15381).
T12 construct: to get the native cell lysate; endogenous in cells; host or cells: A375
Description: ATPase profile (ATP acyl phosphate probe). The data set is classed as binding.

Another data set concerns the target T13, PDE12 (Homo sapiens, UniProt Q6L8Q7).
T13 construct: to get the native cell lysate; endogenous in cells; host or cells: A375 cell lysate
Description: ATPase profile (ATP acyl phosphate probe). In kind it is binding. The note with it: PDE12, SEQ ID NO: 155, ATP BS.

For another data set, the target named is T14, SKIV2L (Homo sapiens, UniProt Q15477).
T14 construct: to get the native cell lysate; endogenous in cells; host or cells: A375 cell lysate
Description: ATPase profile (ATP acyl phosphate probe). The data set is classed as binding. The note with it: SEQ ID NO: 191, ATP BS.

For a further data set, the target named is T15, TOR3A (Homo sapiens, UniProt Q9H497).
T15 construct: to get the native cell lysate; endogenous in cells; host or cells: A375 cell lysate
Description: ATPase profile (ATP acyl phosphate probe). In kind it is binding. The note with it: SEQ ID NO: 206, ATP BS.

The target in the next data set is T16, TRA1 (Homo sapiens, UniProt P14625).
T16 construct: to get the native cell lysate; endogenous in cells; host or cells: A375 cell lysate
Description: ATPase profile (ATP acyl phosphate probe). In kind it is binding. The following applies: TRA1, SEQ ID NO: 208, ATP BS.

The target of the next data set is T17, TTLL12 (Homo sapiens, UniProt Q14166).
T17 construct: to get the native cell lysate; endogenous in cells; host or cells: A375 cell lysate
Description: ATPase profile (ATP acyl phosphate probe). The data set is classed as binding.

In the next data set the target is T18, XRCC6 (Homo sapiens, UniProt P12956).
T18 construct: to get the native cell lysate; endogenous in cells; host or cells: A375 cell lysate
Description: ATPase profile (ATP acyl phosphate probe). The data set is classed as binding. The note with it: XRCC6, SEQ ID NO: 232, ATP BS.

T6 sequence (Q13057 whole entry): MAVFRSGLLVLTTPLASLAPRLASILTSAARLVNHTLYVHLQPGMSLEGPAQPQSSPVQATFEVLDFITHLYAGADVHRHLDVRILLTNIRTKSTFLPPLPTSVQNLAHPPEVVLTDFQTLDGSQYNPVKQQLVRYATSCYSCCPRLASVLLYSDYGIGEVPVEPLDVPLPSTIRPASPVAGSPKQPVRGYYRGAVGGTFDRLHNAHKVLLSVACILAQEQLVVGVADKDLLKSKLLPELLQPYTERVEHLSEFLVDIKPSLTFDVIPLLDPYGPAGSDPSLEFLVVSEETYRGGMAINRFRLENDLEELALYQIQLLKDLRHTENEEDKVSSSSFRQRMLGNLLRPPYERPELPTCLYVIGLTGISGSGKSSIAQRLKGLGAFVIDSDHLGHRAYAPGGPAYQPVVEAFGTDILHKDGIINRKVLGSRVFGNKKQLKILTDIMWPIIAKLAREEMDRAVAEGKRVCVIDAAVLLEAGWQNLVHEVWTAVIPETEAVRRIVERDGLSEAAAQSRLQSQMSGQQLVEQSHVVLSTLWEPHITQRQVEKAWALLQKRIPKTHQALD
T12 sequence (O15381 whole entry): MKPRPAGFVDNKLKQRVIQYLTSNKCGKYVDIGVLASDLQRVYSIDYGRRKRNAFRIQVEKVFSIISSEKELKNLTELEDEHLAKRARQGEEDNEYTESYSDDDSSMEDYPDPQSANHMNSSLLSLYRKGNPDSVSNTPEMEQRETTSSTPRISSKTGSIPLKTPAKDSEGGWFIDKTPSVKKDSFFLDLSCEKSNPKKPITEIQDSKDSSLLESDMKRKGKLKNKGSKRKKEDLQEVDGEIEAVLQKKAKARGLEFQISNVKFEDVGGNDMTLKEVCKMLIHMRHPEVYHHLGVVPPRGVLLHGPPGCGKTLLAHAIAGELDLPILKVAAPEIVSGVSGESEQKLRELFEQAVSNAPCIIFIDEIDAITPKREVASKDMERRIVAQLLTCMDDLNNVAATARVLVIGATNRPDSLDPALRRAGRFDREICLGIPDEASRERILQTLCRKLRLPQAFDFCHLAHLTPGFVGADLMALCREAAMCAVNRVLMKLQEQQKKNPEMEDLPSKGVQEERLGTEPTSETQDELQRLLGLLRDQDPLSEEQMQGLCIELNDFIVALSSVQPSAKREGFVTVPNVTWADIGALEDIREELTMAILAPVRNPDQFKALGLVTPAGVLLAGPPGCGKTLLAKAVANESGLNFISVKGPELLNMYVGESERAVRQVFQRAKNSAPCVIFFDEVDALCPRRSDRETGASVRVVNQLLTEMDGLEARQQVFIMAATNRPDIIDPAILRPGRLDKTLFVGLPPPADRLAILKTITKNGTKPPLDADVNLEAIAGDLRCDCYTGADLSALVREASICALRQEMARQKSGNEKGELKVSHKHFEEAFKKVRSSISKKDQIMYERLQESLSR
T1 sequence (P33527 whole entry): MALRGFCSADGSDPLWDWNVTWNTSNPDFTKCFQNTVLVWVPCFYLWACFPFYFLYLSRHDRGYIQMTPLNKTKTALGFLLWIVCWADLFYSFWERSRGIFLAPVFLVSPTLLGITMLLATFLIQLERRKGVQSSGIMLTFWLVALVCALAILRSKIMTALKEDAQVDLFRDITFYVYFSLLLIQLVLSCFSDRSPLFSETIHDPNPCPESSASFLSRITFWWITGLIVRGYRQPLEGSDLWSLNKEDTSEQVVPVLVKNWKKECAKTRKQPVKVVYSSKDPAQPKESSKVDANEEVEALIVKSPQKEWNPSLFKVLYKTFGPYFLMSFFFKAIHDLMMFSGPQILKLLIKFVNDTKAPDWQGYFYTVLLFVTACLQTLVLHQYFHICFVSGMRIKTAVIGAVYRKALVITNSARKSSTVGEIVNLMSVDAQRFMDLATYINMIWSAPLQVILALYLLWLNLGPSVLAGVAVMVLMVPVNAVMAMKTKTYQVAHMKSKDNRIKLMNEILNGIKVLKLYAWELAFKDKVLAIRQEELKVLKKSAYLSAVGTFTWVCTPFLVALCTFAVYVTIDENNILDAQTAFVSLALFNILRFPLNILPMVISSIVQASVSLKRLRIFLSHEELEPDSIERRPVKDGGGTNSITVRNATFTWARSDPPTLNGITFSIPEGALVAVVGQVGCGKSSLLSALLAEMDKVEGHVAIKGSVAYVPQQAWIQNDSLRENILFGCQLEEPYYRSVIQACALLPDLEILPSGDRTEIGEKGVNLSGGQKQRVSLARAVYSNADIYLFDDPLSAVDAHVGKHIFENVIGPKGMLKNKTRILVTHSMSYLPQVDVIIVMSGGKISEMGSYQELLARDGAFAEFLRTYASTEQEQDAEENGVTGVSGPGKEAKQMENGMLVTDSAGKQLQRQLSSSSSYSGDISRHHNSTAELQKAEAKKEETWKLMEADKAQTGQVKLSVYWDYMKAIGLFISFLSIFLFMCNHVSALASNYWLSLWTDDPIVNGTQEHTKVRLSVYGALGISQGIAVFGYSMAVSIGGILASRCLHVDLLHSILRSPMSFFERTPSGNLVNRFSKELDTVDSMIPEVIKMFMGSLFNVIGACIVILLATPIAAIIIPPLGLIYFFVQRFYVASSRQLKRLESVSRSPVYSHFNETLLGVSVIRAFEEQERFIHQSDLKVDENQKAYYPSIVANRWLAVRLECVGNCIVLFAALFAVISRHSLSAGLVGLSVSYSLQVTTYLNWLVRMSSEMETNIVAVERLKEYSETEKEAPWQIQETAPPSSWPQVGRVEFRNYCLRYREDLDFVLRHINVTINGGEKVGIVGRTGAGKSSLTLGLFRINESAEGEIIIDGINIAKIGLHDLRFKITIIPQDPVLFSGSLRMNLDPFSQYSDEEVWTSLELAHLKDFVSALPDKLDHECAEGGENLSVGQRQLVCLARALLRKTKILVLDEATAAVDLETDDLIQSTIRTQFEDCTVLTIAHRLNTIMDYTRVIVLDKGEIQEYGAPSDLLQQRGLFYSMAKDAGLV
T17 sequence (Q14166 whole entry): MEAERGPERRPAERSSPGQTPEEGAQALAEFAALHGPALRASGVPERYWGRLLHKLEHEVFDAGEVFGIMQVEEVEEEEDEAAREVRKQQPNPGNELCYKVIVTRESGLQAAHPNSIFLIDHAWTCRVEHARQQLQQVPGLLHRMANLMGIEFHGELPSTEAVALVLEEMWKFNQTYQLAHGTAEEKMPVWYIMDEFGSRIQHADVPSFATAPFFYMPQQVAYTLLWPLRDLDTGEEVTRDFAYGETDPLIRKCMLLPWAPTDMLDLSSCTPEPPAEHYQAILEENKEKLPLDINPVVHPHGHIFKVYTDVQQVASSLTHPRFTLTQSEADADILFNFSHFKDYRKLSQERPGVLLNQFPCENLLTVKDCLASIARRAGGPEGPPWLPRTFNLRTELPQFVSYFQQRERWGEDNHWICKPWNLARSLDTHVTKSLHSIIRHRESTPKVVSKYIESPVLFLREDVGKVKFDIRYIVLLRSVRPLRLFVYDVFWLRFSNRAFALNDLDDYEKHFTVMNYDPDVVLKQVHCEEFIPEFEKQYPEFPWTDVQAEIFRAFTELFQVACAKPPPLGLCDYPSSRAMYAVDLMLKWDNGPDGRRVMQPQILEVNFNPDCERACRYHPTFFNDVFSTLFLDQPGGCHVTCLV
T18 sequence (P12956 2-609 limits assumed): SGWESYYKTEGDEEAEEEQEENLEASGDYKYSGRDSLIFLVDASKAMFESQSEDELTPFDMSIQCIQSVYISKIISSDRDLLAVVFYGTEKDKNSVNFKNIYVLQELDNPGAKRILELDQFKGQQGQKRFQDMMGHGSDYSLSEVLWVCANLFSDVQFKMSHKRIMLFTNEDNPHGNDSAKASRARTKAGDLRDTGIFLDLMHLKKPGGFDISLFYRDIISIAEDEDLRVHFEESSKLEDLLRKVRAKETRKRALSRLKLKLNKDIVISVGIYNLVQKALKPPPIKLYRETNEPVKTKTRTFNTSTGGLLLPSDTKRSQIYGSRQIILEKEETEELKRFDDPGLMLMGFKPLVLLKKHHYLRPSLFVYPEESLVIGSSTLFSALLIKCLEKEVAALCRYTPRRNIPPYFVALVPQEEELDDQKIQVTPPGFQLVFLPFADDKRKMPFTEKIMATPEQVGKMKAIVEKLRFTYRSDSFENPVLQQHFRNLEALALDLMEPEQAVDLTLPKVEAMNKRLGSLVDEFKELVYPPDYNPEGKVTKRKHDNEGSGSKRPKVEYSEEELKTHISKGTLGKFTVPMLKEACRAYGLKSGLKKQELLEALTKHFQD
T18 sequence (P13010 2-732 partner limits assumed): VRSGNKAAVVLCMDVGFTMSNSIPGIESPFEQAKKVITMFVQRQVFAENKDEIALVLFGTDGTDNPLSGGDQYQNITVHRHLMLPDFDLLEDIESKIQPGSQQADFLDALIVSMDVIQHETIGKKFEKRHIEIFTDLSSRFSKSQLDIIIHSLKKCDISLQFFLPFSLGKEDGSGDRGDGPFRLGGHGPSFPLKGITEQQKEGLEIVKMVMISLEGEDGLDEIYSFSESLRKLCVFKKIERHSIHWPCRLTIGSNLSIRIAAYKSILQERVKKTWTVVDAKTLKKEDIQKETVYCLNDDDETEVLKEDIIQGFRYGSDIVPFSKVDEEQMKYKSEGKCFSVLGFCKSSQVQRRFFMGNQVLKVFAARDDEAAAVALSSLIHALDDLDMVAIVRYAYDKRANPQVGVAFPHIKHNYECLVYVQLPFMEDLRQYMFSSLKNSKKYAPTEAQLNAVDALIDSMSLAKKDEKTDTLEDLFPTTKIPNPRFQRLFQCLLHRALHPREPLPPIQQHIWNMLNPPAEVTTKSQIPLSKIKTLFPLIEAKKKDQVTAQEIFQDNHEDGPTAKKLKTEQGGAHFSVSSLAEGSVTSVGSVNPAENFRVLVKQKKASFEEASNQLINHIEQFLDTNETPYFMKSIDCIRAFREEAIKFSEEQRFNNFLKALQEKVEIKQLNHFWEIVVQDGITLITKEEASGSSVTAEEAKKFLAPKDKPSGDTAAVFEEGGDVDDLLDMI

As for `Cn1c(=O)[nH]c2ccc(-c3cccc(C(=O)NC4CCn5ccnc5C4)c3)cc21` (stereo not drawn) [Z36-MP5, 3-(3-methyl-2-oxo-2,3-dihydro-1H-benzo[d]imidazol-5-yl)-N-(5,6,7,8-tetrahydroimidazo[1,2-a]pyridin-7-yl)benzamide], the “tolerability (mouse weight, organ tissue histological staining)” value in data set [1] is listed as “tolerated without significant toxicity”. Further, the “Inhibition (%) by 1 μM Z36-MP5” value on ABCC1 (ABCC1, SEQ ID NO: 5, ATP BS) is recorded as −0.23%; at ABCC1 (ABCC1, SEQ ID NO: 6, ATP BS), −7.84%; at ABCD3, 3.07%; at ACTR3 (ACTR3, SEQ ID NO: 27, ATP BS), 5.36%; on ACTR3 (ACTR3, SEQ ID NO: 28, ATP BS) it was −0.28%; at AK4, −9.19%. For the same molecule, the “Inhibition (%) by 1 μM Z36-MP5” value at CCT2 is −6.50%; at COASY (SEQ ID NO: 62, ATP BS) it was −3.39%; at COASY (SEQ ID NO: 63, ATP BS), 23.55%; on HSP90AA, −1.29%; at IDI1 it was 5.48%; at LONP1, 1.81%. In addition, the “Inhibition (%) by 1 μM Z36-MP5” value at NRK1 was 0.34%; on NVL (SEQ ID NO: 148, ATP BS) it was −1.13%; on NVL (SEQ ID NO: 149, ATP BS) it was −8.26%; at PDE12, −5.87%; on SKIV2L, −3.49%; on TOR3A, 6.55%. In addition, the “Inhibition (%) by 1 μM Z36-MP5” value was −8.56% at TRA1; −5.29% at TTLL12 (TTLL12, SEQ ID NO: 215, ATP BS); −17.65% at TTLL12 (TTLL12, SEQ ID NO: 216, ATP BS); 10.61% at XRCC6. In addition, at HSP90B2P, TRA1, the inhibition (as a rule, the drop in the measured response relative to a control, in per cent) at 1 µM was -6.72%.
